The structures appear in SMILES notation.

This note sets out measurements from ChEMBL document CHEMBL1131698, “Platelet glycoprotein IIb/IIIa receptor antagonists derived from isoxazolidines” (Bioorg Med Chem Lett, 1999).

The species named for the test is Homo sapiens. Put plainly: Compound was tested for its in vitro activity in the inhibition of platelet aggregation using human platelet rich plasma. The test is classed as functional.
In general, IC50 refers to the midpoint of a concentration-inhibition curve. A low value points to greater potency. Compound `Cc1cccc(S(=O)(=O)N[C@@H](CNC(=O)C[C@@H]2C[C@H](c3ccc(C(=N)N)cc3)N(Cc3ccccc3)O2)C(=O)O)c1` had an IC50 of 190 nM.

As to `Cc1cccc(S(=O)(=O)N[C@@H](CNC(=O)C[C@H]2C[C@H](c3ccc(C(=N)N)cc3)N(C)O2)C(=O)O)c1`, the concentration for half-maximal inhibition (IC50) was determined as 1500 nM.

The compound `CCCCOC(=O)N[C@@H](CNC(=O)C[C@@H]1C[C@H](c2ccc(C(=N)N)cc2)N(C)O1)C(=O)O` gave an IC50 of 164 nM.

For the compound `Cc1cccc(S(=O)(=O)N[C@@H](CNC(=O)C[C@@H]2C[C@H](c3ccc(C(=N)N)cc3)N(c3ccccc3)O2)C(=O)O)c1`, the IC50 was determined as 530 nM.

Regarding `Cc1cccc(S(=O)(=O)N[C@@H](CNC(=O)C[C@@H]2C[C@H](c3ccc(C(=N)N)cc3)N(C(C)C)O2)C(=O)O)c1`, the 50% inhibitory concentration (IC50) came out at 140 nM.

`Cc1noc(C)c1S(=O)(=O)N[C@@H](CNC(=O)C[C@@H]1C[C@H](c2ccc(C(=N)N)cc2)N(C)O1)C(=O)O` came in with an IC50 of 84 nM.

In turn, `Cc1cccc(S(=O)(=O)N[C@@H](CNC(=O)C[C@@H]2C[C@H](c3ccc(C(=N)N)cc3)N(C)O2)C(=O)O)c1` registered an IC50 of 28 nM.

In the case of `Cc1ccccc1S(=O)(=O)N[C@@H](CNC(=O)C[C@@H]1C[C@H](c2ccc(C(=N)N)cc2)N(C)O1)C(=O)O`, inhibition was half-maximal at 58 nM (IC50).
